Literature values, collected in patent US20240158375A1, “COMPOUNDS AND METHODS FOR THE TREATMENT OF OCULAR DISORDERS” (Azura Ophthalmics Ltd., priority 2020, published 2024).

Legend:
[1] = molecular target: integrin α4 (Homo sapiens, UniProt P05556+P13612); conditions: Ravensberg et al, Allergy (2006) 61, 1097-1103
[2] = test system: murine DS model; conditions: Invest. Ophthalmol. Vis. Sci. (2015) 56(10), 5888-5895

Chain of integrin α4 (P13612 34-1032, species assumed): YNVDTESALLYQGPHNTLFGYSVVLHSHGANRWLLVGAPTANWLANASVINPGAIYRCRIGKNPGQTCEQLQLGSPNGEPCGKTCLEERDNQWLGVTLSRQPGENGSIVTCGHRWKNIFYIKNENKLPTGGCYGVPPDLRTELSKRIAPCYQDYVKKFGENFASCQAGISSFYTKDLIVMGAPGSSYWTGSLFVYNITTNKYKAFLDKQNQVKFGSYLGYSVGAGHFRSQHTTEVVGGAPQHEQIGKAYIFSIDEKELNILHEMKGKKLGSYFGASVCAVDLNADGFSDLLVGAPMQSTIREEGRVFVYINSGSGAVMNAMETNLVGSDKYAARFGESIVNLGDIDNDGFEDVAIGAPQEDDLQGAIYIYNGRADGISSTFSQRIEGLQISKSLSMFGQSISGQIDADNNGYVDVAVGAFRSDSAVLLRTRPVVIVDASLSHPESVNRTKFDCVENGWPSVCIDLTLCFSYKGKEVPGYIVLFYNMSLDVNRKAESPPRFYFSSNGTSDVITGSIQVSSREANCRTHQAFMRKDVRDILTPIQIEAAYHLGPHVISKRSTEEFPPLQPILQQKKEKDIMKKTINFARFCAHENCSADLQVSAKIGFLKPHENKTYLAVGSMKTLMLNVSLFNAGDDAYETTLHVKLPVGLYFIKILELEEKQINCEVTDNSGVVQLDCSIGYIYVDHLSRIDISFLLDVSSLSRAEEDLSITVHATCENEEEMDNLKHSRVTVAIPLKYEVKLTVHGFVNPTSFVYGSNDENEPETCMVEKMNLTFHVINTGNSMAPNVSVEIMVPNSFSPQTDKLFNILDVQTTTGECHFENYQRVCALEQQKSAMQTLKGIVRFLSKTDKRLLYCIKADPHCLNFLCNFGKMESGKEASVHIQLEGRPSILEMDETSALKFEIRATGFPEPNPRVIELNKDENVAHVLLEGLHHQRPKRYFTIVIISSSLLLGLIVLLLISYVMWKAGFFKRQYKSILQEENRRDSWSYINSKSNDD
Chain of integrin α4 (P05556 21-798, species assumed): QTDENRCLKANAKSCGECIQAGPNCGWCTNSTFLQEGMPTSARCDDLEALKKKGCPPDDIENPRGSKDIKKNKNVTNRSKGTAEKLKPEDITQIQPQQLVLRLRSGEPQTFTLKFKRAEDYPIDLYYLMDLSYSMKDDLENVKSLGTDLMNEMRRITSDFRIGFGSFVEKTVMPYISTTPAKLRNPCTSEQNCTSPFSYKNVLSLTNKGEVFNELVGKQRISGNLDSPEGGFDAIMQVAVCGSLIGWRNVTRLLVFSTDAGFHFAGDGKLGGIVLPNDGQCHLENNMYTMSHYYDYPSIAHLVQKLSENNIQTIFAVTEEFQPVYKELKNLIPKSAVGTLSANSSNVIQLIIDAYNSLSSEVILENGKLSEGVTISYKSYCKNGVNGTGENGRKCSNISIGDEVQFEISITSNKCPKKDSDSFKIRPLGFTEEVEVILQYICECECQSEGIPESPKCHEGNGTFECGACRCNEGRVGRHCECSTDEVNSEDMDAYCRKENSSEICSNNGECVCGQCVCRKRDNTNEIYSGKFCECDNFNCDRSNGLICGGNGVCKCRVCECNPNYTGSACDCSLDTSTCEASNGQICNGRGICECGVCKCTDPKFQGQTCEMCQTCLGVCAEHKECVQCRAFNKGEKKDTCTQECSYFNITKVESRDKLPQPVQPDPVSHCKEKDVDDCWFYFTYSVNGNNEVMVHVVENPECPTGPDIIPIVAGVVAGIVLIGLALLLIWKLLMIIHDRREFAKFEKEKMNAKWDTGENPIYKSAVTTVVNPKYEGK

Cc1ccccc1OCC(=O)N[C@@H](CC(C)C)C(=O)N[C@@H](Cc1ccc(OC(=O)N2CCC(C(N)=O)CC2)cc1)C(=O)O [(S)-3-(4-((4-carbamoylpiperidine-1-carbonyl)oxy)phenyl)-2-((S)-4-methyl-2-(2-(o-tolyloxy)acetamido)pentanamido)propanoic acid]
integrin α4 antagonist activity [1]: potent integrin a4 antagonist
objective signs of dry eye [2]: improvements in objective signs of dry eye
